According to ChEMBL document CHEMBL1201862, “PubChem BioAssay data set” (2004):
Values joined by “and” are separate entries in the source; they are usually repeats but may differ in a detail not shown here. Equal entries are not always repeated. Active and inactive are the calls of the source.

Assays:
[1] = cytotoxicity in HEK-293T cells, dose response, cytotoxicity control for BCR NF-kB inhibitor project, luminescence, B-cell screen hits (AID 489021); assay type: functional, cell-based;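 further: HEK-293T cells carrying an NF-kB luciferase reporter; cells exposed to compound for about 14 hours before viability readout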
[2] = molecular target: Glyceraldehyde-3-phosphate dehydrogenase (Homo sapiens, UniProt P04406)
Chain of Glyceraldehyde-3-phosphate dehydrogenase (P04406 whole entry): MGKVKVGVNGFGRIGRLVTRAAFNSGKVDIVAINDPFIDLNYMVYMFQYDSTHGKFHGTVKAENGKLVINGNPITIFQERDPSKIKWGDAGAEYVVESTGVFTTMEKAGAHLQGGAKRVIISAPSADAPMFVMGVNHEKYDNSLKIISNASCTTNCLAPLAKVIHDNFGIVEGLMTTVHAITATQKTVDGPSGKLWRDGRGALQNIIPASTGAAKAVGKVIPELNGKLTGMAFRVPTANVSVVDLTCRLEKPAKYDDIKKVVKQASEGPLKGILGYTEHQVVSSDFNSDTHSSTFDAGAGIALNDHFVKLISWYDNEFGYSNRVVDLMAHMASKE

[3] = molecular target: T1, Alkaline phosphatase, tissue-nonspecific isozyme (Homo sapiens, UniProt P05186); assay: human TNAP enzyme inhibitors, SAR follow-up, biochemical, luminescent, dose response (AID 1056)
T1 sequence (P05186 whole entry): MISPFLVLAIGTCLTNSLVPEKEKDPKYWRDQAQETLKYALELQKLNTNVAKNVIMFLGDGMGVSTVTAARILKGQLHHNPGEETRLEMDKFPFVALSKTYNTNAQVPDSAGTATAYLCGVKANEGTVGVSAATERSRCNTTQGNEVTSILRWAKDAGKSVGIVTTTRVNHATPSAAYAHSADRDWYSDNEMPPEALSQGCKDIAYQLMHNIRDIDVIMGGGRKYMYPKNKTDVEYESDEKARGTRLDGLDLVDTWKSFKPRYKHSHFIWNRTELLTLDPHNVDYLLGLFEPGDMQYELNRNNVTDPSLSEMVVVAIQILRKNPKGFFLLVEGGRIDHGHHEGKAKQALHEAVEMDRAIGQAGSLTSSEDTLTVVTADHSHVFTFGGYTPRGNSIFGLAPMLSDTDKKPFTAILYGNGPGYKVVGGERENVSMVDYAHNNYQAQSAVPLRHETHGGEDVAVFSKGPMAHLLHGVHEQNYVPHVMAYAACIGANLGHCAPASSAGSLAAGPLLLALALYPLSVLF

[4] = molecular target: T2, DNA dC->dU-editing enzyme APOBEC-3A (Homo sapiens, UniProt P31941); assay: Dose Response confirmation of small molecule APOBEC3A DNA Deaminase Inhibitors via a fluorescence-based single-stranded DNA deaminase assay. [Related pubchem assays (depositor defined):AID493011, AID493024]; assay type: functional
T2 sequence (P31941 whole entry): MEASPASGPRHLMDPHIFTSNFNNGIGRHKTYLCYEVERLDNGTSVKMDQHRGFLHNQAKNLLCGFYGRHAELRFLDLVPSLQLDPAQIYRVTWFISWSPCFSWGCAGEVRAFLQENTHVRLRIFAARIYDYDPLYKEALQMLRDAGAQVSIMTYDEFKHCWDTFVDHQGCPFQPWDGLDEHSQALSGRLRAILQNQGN

[5] = molecular target: T3, DNA dC->dU-editing enzyme APOBEC-3G (Homo sapiens, UniProt Q9HC16); assay type: functional
T3 sequence (Q9HC16 whole entry): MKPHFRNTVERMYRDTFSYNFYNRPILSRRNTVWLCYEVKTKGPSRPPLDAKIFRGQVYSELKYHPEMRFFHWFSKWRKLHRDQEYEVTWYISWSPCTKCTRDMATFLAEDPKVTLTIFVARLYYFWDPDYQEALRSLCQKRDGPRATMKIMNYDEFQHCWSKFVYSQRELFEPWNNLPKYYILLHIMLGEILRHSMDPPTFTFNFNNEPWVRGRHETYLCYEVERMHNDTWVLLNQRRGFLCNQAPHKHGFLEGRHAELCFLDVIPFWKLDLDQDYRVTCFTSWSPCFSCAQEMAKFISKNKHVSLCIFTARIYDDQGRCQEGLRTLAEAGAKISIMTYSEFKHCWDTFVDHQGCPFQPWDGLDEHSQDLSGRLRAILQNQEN

[6] = molecular target: T4, Short transient receptor potential channel 4 (Mus musculus, UniProt Q9QUQ5); assay: mouse TRPC4 channel activators, dose response, cell-based, HEK293 TRPC4/mu-opioid, Fluo-4 calcium (AID 434937); assay type: functional
T4 sequence (Q9QUQ5 whole entry): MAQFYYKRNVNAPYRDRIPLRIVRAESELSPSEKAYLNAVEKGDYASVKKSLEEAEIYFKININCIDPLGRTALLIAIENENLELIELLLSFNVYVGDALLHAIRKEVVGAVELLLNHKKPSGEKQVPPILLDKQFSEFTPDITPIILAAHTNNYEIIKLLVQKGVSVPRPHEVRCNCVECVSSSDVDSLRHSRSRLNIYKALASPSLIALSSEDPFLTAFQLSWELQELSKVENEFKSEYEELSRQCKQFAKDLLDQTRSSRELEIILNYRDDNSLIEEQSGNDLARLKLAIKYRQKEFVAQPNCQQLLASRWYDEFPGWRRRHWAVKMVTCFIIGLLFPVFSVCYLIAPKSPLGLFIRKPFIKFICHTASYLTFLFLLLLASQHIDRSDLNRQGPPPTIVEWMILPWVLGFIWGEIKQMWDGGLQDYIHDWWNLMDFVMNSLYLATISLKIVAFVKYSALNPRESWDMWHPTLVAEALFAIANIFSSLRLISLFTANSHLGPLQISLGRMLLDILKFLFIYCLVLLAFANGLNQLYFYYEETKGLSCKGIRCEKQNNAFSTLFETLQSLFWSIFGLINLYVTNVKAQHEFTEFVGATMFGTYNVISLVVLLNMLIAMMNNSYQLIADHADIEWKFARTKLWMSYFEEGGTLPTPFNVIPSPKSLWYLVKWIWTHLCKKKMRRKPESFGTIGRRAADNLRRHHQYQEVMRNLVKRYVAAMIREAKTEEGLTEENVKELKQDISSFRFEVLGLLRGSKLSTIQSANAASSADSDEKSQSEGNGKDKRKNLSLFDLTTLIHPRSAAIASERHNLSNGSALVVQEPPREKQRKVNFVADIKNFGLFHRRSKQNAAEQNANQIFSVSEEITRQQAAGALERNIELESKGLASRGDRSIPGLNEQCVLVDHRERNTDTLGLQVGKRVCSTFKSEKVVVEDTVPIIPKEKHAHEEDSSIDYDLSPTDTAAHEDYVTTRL

Cytochrome P450 2C9 = Cytochrome P450 2C9 (Homo sapiens, UniProt P11712)
Chain of Cytochrome P450 2C9 (P11712 whole entry): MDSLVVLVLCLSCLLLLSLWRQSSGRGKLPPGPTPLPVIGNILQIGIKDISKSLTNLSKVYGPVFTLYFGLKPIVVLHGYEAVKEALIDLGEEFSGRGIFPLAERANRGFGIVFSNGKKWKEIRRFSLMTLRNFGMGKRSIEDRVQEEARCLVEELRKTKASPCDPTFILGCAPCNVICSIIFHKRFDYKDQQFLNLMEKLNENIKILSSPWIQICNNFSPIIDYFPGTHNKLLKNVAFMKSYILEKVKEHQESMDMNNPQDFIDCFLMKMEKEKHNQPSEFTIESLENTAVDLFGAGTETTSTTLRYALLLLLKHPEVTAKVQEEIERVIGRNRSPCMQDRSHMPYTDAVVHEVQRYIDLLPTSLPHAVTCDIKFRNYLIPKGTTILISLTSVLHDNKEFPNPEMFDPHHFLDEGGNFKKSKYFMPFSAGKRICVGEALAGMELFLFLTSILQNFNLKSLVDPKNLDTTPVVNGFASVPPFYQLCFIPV

Cytochrome P450 3A4 [7] = molecular target: T5, Cytochrome P450 3A4 (Homo sapiens, UniProt P08684); details: Potency
T5 sequence (P08684 whole entry, the tested form may be a part): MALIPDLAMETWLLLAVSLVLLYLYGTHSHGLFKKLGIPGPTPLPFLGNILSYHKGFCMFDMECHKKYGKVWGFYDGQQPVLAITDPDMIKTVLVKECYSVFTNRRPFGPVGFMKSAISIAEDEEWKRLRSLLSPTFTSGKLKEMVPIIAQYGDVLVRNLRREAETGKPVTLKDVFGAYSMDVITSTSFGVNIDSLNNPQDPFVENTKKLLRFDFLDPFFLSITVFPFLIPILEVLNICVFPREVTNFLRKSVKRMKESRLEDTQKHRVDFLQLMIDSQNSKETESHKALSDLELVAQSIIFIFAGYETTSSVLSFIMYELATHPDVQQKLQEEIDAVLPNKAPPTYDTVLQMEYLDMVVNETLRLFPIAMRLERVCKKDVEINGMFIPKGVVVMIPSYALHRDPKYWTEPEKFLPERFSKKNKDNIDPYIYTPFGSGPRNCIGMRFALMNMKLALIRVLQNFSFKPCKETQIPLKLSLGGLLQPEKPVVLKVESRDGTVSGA

[8] = molecular target: T6, RNA-binding protein pos-1 (Caenorhabditis elegans, UniProt G5EF15); assay: inhibitors of POS-1/mex-3 RNA binding, dose response, biochemical, fluorescence polarization (AID 1964);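 further: purified POS-1 fused to maltose binding protein made in E. coli; potency of compounds blocking POS-1 binding to fluorescent RNA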
T6 sequence (G5EF15 whole entry): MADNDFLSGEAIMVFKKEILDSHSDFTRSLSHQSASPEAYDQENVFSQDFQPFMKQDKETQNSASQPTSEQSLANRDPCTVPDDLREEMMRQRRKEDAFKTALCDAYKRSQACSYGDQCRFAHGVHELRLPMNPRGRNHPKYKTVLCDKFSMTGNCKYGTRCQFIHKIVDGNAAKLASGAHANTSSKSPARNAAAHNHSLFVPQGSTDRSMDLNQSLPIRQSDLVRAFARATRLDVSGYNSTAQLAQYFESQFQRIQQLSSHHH

[9] = molecular target: T7, Zinc finger protein mex-5 (Caenorhabditis elegans, UniProt Q9XUB2); assay: MEX-5/TCR-2 RNA interaction inhibitors, dose response, biochemical, C. elegans, fluorescence polarization (AID 1960)
T7 sequence (Q9XUB2 whole entry): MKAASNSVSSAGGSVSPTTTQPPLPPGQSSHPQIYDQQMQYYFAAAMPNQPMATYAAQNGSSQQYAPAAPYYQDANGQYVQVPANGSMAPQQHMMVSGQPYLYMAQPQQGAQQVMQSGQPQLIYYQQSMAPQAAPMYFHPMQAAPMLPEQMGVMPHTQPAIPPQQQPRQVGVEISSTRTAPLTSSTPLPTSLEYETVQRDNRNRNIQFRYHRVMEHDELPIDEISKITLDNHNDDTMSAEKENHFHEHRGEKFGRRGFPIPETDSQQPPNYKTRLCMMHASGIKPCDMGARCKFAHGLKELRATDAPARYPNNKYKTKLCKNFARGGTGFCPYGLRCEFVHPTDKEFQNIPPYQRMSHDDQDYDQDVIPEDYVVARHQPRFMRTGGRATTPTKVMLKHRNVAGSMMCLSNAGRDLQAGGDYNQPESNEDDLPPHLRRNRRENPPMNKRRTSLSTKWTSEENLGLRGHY

Troponin, cardiac muscle = Troponin, cardiac muscle (Homo sapiens, UniProt P19429+P45379+P63316); assay: Fluorescence-based biochemical high throughput dose response assay for activators of the calcium sensitivity of cardiac Regulated Thin Filaments (RTF). [Related pubchem assays (depositor defined):AID493008, AID493018, AID504382, AID504383]; assay type: protein-complex assay
[10] = molecular target: Glucose-6-phosphate 1-dehydrogenase (Homo sapiens, UniProt P11413); assay: human G6PD enzyme inhibitors, dose response, selectivity assay for P. falciparum G6PD inhibitor project, biochemical, fluorescence (AID 504792); assay type: functional
Chain of Glucose-6-phosphate 1-dehydrogenase (P11413 whole entry): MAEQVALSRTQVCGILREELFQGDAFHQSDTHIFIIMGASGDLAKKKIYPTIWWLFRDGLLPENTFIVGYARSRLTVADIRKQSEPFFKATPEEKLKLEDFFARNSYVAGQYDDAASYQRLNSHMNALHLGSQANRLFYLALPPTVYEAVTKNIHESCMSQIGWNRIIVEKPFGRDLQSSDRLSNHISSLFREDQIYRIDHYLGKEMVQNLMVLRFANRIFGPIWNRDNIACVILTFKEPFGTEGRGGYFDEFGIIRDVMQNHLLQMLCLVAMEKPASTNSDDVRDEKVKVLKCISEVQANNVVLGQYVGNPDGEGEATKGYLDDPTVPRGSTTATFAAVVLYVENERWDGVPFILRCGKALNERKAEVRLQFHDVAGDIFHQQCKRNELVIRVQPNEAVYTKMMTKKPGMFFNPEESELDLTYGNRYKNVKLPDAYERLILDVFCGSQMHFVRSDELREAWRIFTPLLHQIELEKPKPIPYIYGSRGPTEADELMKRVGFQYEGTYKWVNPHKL

[11] = molecular target: T2, DNA dC->dU-editing enzyme APOBEC-3A; assay: APOBEC3A DNA deaminase inhibitors, dose response, biochemical (AID 504722); assay type: functional
[12] = molecular target: T3, DNA dC->dU-editing enzyme APOBEC-3G; assay: Dose Response confirmation of small molecule APOBEC3G DNA Deaminase Inhibitors via a fluorescence-based single-stranded DNA deaminase assay. [Related pubchem assays (depositor defined):AID493012, AID493028]; assay type: functional
[13] = Luminescence Cell-Based Dose Response to Identify Activators of 5'UTR Stem-Loop Driven Prion Protein mRNA Translation in H4-C Neuroglioblastoma Cells. [Related pubchem assays: 1829 (Project Summary), 1814 (Primary HTS)]; assay type: functional
[14] = Luminescence Cell-Based Dose Confirmation HTS to Identify Activators of 5'UTR Stem-Loop Driven Alpha-Synuclein mRNA Translation in H4 Neuroglioblastoma Cells. [Related pubchem assays: 1829 (Project Summary), 1814 (Primary HTS)]; assay type: functional
[15] = Luminescence Cell-Based Dose Response HTS to Identify Activators of Luciferase Translation or Activity in H4 […] Cells. [Related pubchem assays: 1829 (Project Summary), 1814 (Primary HTS)]; assay type: functional
H4 = assay: Luminescence Cell-Based Dose Response HTS to Identify Activators of 5'UTR Stem-Loop Driven Prion Protein mRNA Translation in H4 Neuroglioblastoma Cells. [Related pubchem assays: 1829 (Project Summary), 1814 (Primary HTS)]; assay type: functional; details: Homo sapiens
[16] = Luminescence Cell-Based Dose Response to Identify Activators of Luciferase Translation or Activity in H4-C Neuroglioblastoma Cells. [Related pubchem assays: 1829 (Project Summary), 1814 (Primary HTS)]; assay type: functional
[17] = Luminescence Cell-Based Dose Confirmation to Identify Activators of 5'UTR Stem-Loop Driven Alpha-Synuclein mRNA Translation in H4 Neuroglioblastoma Cells. [Related pubchem assays: 1829 (Project Summary), 1814 (Primary HTS)]; assay type: functional
[18] = THP-1 cell cytotoxicity, dose response, cytotoxicity control for non-replicating M. tuberculosis project (AID 489025); assay type: functional
cells [19] = assay type: functional
H9c2 = assay: cells; assay type: functional, cell-based; details: Rattus norvegicus, H9c2, Myocardium;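 further: confirmatory concentration-response retest of ultra-high-throughput screening hits for modulation of myocardial damage; cell death induced by hydrogen peroxide oxidative stress; compound pretreatment for 60 min then peroxide exposure for 2 h; potency is for protecting the cells against peroxide damage rather than for killing them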
[20] = molecular target: Induced myeloid leukemia cell differentiation protein Mcl-1 (Homo sapiens, UniProt Q07820); assay type: functional
Chain of Induced myeloid leukemia cell differentiation protein Mcl-1 (Q07820 whole entry): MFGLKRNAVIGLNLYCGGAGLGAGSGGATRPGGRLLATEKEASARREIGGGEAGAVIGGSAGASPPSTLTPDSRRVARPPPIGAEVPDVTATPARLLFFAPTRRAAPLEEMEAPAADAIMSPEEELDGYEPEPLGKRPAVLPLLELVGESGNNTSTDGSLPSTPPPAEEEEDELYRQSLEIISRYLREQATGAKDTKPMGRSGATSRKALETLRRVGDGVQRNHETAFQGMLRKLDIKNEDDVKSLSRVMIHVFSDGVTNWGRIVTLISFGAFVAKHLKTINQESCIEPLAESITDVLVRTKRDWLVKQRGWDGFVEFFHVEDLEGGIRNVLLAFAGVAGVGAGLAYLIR

[21] = inhibitors of intracellular T. cruzi replication, confirmation, NIH3T3 host cells, beta-gal luminescence (AID 2044); assay type: functional, cell-based;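 further: intracellular parasites grown in NIH/3T3 mouse fibroblasts as host cells; luminescent beta-galactosidase reporter signal from transgenic T. cruzi replicating inside host cells; inhibitors lower the luminescence signal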
[22] = cytotoxicity toward NIH3T3 fibroblasts, dose response, counter-screen, cell-based, ATP luminescence, mouse fibroblasts (AID 2010); assay type: functional;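 further: cells exposed to compound for about 90 hours before reading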
cells [23] = assay: cells
Cytochrome P450 3A4 [24] = molecular target: T5, Cytochrome P450 3A4

Cn1c(=O)c2c(SCC(=O)Nc3ccccc3F)nc(-c3ccccc3F)nc2n(C)c1=O
IC50 [1]: > 80 µM (inactive)

O=S(=O)(Nc1cnc2ccccc2c1)c1ccc(Br)cc1OC(F)(F)F
IC50 [2]: > 100 µM (not active)
IC50 [3]: 1.5 µM (active)

CCN(CC)c1ccc(/C=C2/C(=O)ON=C2C)cc1
IC50 [1]: > 80 µM (inactive)

C[N+](C)(C)CCOC(=O)C1(c2ccccc2)CCCC1
IC50 [4]: 1.06 µM (active)
IC50 [5]: 1.12 µM (active)

COC(=O)c1cc(N2CCNCC2)nc2ccccc12
EC50 [6]: 1.19 µM (active)

CCc1nc(NCCc2ccccn2)c2nnn(Cc3ccccc3F)c2n1
EC50 [6]: 2.66 µM (active)

COC(=O)c1cnn(C(=O)c2cc(OC)ccc2Br)c1N
AC50 (Cytochrome P450 2C9): inconclusive

Cc1ccc(S(=O)(=O)Nc2ccc3ccccc3c2)cc1
IC50 [2]: > 100 µM (not active)
IC50 [3]: > 100 µM (inactive)

COCCNc1nc(C)nc2c1nc(-c1ccccc1)n2CCN1CCCC1
AC50 (Cytochrome P450 3A4 [7]): 25.1 µM (inconclusive)

CC(=O)N1CCc2c(sc(NC(=O)C3CCCN3S(=O)(=O)c3cccs3)c2C(N)=O)C1 (stereo not given)
EC50 [8]: 10.2 µM (active)
EC50 [9]: 5.83 µM (active)
EC50 (Troponin, cardiac muscle): 18.5 µM (inactive)

Cc1cc(C)c2sc(NC(=O)C3=COCCO3)nc2c1
IC50 [10]: > 80 µM (inactive)

Nn1c(COc2ccc(Cl)cc2)n[nH]c1=S
IC50 [11]: > 100 µM (inactive)
IC50 [12]: 2.49 µM (active)

Cc1ccc(NC(=O)C2CCCN(c3ncccn3)C2)cc1F (stereo not given)
EC50 [13]: 1.22 µM (active)
EC50 [14]: < 0.1 µM (active)
EC50 [15]: 0.125 µM (inconclusive)
EC50 (H4): 6.45 µM (active)
EC50 [16]: 0.856 µM (active)
EC50 [17]: 0.141 µM (active)

Cc1ccccc1OCCNc1cc(N2CC(C)NC(C)C2)ccc1[N+](=O)[O-] (stereo not given)
CC50 [18]: 21.4 µM (active)
IC50 (cells [19]): 12.8 µM (active)

Cc1ccc(C)c(S(=O)(=O)N2CCN(C(=O)CCc3nc(O)c4ccccc4n3)CC2)c1
EC50 [6]: 4.73 µM (active)
IC50 (H9c2): > 79 µM (inactive)

Cn1c(SCC(=O)Nc2ccc3nc(SCC(=O)N4CCCC4)sc3c2)nnc1-c1ccccc1
IC50 [20]: 2.83 µM (active)

CC(=C\C(=O)O)/C(=C/c1ccccc1)C(=O)O
AC50 (Cytochrome P450 2C9): inconclusive

CN(CC(=O)NCc1ccco1)S(=O)(=O)c1cccc2cccnc12
EC50 (Troponin, cardiac muscle): > 71.5 µM (inactive)

O=C(NCCc1c[nH]cn1)c1ccc(-c2ccccc2)cc1
EC50 [21]: < 0.1 µM (active)
EC50 [22]: > 30 µM (not active)
EC50 [6]: 5.96 µM (active)
EC50 (cells [23]): 0.062 µM (active)

Cc1ccc2c(c1)C1(SCCS1)C(=O)N2
AC50 (Cytochrome P450 3A4 [24]): 11.2 µM (inconclusive)
AC50 (Cytochrome P450 2C9): inconclusive

Fc1ccc(/C=N/NC2=Nc3cccc4cccc2c34)cc1
EC50 [13]: 0.233 µM (active)
EC50 [15]: < 0.1 µM (inconclusive)
EC50 (H4): < 0.1 µM (active)
EC50 [16]: 0.343 µM (active)
EC50 [17]: 0.278 µM (active)

COc1cccc(C(=O)N/N=C/c2ccc(Oc3ccc([N+](=O)[O-])cn3)c(OC)c2)c1
IC50 [4]: 3.44 µM (active)
IC50 [5]: 3.84 µM (active)

Fc1ccccc1/C=N/n1c(S)nnc1-c1cccnc1
IC50 [11]: > 100 µM (inactive)
IC50 [12]: 3.16 µM (active)

Cc1ccc(/C=N/n2c(S)nnc2-c2ccncc2)o1
IC50 [11]: > 100 µM (inactive)
IC50 [12]: 6.55 µM (active)

Nc1cccc2ccccc12
AC50 (Cytochrome P450 3A4 [7]): 31.6 µM (inconclusive)

CCCCC/C=C\C/C=C\C/C=C\C/C=C\CCCC(=O)O [ARACHIDONIC ACID]
AC50 (Cytochrome P450 3A4 [7]): 39.8 µM (inconclusive) and 7.94 µM (inconclusive)
